One test addresses Substance-P receptor (Rattus norvegicus, UniProt P14600). Put plainly: […]. It counts as functional, microsomes, Liver, Microsome.
The nature of test [1]: (§1) Compound was tested in vivo for the ability to antagonise extravasation induced by the administration at 1 mg/kg po. It counts as functional.
A short description of test [2]: as §1. It counts as functional. This is another data set of the same source.
A short description of test [3]: Compound was tested in vivo for the ability to antagonise extravasation induced by the administration. It counts as functional. The conditions noted are these: read-out: ID50 (the source's name).
Test [4] is described as follows: Compound was tested in vivo for the ability to antagonise extravasation induced by the administration. It counts as functional.

Sequence of Substance-P receptor (P14600 whole entry): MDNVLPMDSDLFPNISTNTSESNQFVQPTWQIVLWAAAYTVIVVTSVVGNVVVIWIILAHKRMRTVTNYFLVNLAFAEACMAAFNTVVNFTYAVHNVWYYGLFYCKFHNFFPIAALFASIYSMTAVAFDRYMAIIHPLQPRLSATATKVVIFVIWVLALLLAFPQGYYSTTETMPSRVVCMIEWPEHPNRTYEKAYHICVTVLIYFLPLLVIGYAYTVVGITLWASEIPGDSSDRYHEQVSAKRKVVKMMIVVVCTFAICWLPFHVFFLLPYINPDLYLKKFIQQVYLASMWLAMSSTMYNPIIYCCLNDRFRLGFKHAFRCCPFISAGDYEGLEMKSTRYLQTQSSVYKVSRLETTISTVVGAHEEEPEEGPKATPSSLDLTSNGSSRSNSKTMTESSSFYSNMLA

Regarding `C[C@H](O[C@H]1CCCN(Cc2n[nH]c(O)n2)[C@H]1c1ccccc1)c1cc(Cl)cc(Cl)c1`, the IC50 (in general, the concentration at which inhibition is half-maximal) against Substance-P receptor was found to be 25 nM.
The molecule `C[C@@H](O[C@H]1CCCN(Cc2n[nH]c(O)n2)[C@H]1c1ccccc1)c1cc(C(F)(F)F)cc(C(F)(F)F)c1` registered an IC50 against Substance-P receptor of 0.16 nM. Moreover, the inhibition in vivo (usually the relative decrease from the control value, in per cent) at 1 mg/kg is 97% in test [1] and 66% in test [2]. Moreover, the ED50 in test [3] came to 0.026 mg/kg.
Take `C[C@@H](O[C@H]1CCCN(Cc2n[nH]c(O)n2)[C@H]1c1ccccc1)c1cc(Cl)cc(Cl)c1`: on Substance-P receptor, 0.09 nM corresponded to half-maximal inhibition (IC50). Also, the ED50 in test [3] is more than 0.1 mg/kg.
As for `C[C@H](O[C@H]1CCCN[C@H]1c1ccccc1)c1cc(C(F)(F)F)cc(C(F)(F)F)c1`, on Substance-P receptor, 87 nM corresponded to half-maximal inhibition (IC50).
On the same count and under the same terms, for `C[C@@H](O[C@H]1CCCN[C@H]1c1ccccc1)c1cc(Cl)cc(Cl)c1` the value was 0.91 nM; for `C[C@H](O[C@H]1CCCN[C@H]1c1ccccc1)c1ccccc1`, more than 10000 nM.
Still for that read-out and setting: for `C[C@@H](O[C@H]1CCCN[C@H]1c1ccccc1)c1cc(C(F)(F)F)cc(C(F)(F)F)c1` the value was 0.15 nM; for `C[C@@H](O[C@H]1CCCN[C@H]1c1ccccc1)c1ccccc1`, 86 nM.
Same read-out and setting: for `C[C@H](O[C@H]1CCCN[C@H]1c1ccccc1)c1cc(Cl)cc(Cl)c1` the value was 85 nM; for `FC(F)(F)c1cc(CO[C@H]2CCCN[C@H]2c2ccccc2)cc(C(F)(F)F)c1`, 0.8 nM; for `c1ccc(CO[C@H]2CCCN[C@H]2c2ccccc2)cc1`, 160 nM.
Regarding `C[C@@H](O[C@H]1CCCN(Cc2nc[nH]n2)[C@H]1c1ccccc1)c1cc(C(F)(F)F)cc(C(F)(F)F)c1`, the Inhibition – broadly, the percentage by which the read-out fell short of the control – in test [4] came out at 12%. This molecule showed a half-maximal inhibitory concentration (IC50) against Substance-P receptor of 0.16 nM. The molecule also returned an inhibition in vivo at 1 mg/kg in test [1] of 78%. Further, the ED50 in test [3] amounted to 0.06 mg/kg.
Take `C[C@@H](O[C@H]1CCCN(Cc2n[nH]c(=O)[nH]2)[C@H]1c1ccccc1)c1ccccc1`: half-maximal inhibition against Substance-P receptor (IC50) required 5.9 nM.
The molecule `FC(F)(F)c1cc(CO[C@H]2CCCN(Cc3nc[nH]n3)[C@H]2c2ccccc2)cc(C(F)(F)F)c1` gave an Inhibition in test [4] of 0%. Moreover, half-maximal inhibition against Substance-P receptor (IC50) was put at 0.18 nM. This molecule yielded an inhibition in vivo at 1 mg/kg in test [1] of 55%. In test [3], the ED50 turned out to be 0.034 mg/kg.

These data come from ChEMBL document CHEMBL1129801, “3-Benzyloxy-2-phenylpiperidine NK1 antagonists: the influence of alpha methyl substitution” (Bioorg Med Chem Lett, 1997).
